Each substance was assayed on luciferase gene expression in HEK 293 cells in response to Comp. 004 (assay: Screen of riboswitch constructs with 12C6-1 variant aptamers (libraries N1-N5) against Comp. 004, luciferase in HEK 293 cells). Conditions: library N5 variant aptamers (L5, X16-X21 randomized) of 12C6-1 in riboswitch constructs; in response to Comp. 004 treatment; HEK 293 cells.
Assay type: cell-based, human
Summary of the method: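 Riboswitch constructs carrying 12C6-1 aptamer variants, randomized in J2-4, J2-3/J3-3a/J3a-2/P3, L3a, J4-5/J5-4/P4 or L5 regions (libraries N1-N5), cloned into an intron-exon-intron cassette driving luciferase. Screened in HEK 293 cells with 25 µM Comp. 004; read-out is fold induction of gene expression versus parent Luci-12C6-1.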

Substance	Fold (induction of luciferase gene expression) [fold]
N5_7B1 (CTGGGGAGTCCT; chemistry not given here)	2062.3
N5_7B3 (CTGGGGAGTCCT; chemistry not given here)	756.3
N5_7B5 (CTGGGGAGTCCT; chemistry not given here)	779.9
N5_7B6 (CTGGGGAGTCCT; chemistry not given here)	875.4
N5_7B7 (CTGGGGAGTCCT; chemistry not given here)	1046.3
N5_7B8 (CTGGGGAGTCCT; chemistry not given here)	693.7
N5_7B10 (CTGGGGAGTCCT; chemistry not given here)	1361.5
N5_7B12 (CTGGGGAGTCCT; chemistry not given here)	908.4
N5_7C1 (CTGGGGAGTCCT; chemistry not given here)	87.5
N5_7C2 (DNA CTGGGGAGTCCT; chemistry not given here)	627.0
N5_7C3 (DNA CTGGGGAGTCCT; chemistry not given here)	1258.4
N5_7C4 (DNA CTGGGGAGTCCT; chemistry not given here)	1363.2
N5_7C7 (DNA CTGGGGAGTCCT; chemistry not given here)	489.1
N5_7C8 (DNA CTGGGGAGTCCT; chemistry not given here)	1313.8
N5_7C10 (CTGGGGAGTCCT; chemistry not given here)	1090.7
N5_7C11 (CTGGGGAGTCCT; chemistry not given here)	459.9
N5_7C12 (CTGGGGAGTCCT; chemistry not given here)	628.9
N5_7D1 (DNA CTGGGGAGTCCT; chemistry not given here)	909.3
N5_7D2 (DNA CTGGGGAGTCCT; chemistry not given here)	1114.3
N5_7D3 (DNA CTGGGGAGTCCT; chemistry not given here)	1075.7
N5_7D4 (DNA CTGGGGAGTCCT; chemistry not given here)	1144.9
N5_7D5 (DNA CTGGGGAGTCCT; chemistry not given here)	1182.3
N5_7D6 (DNA CTGGGGAGTCCT; chemistry not given here)	1210.5
N5_7D7 (DNA CTGGGGAGTCCT; chemistry not given here)	105.5

Substance	Fold (induction of luciferase gene expression) [fold]
N5_7D11 (DNA CTGGGGAGTCCT; chemistry not given here)	759.2
N5_7E1 (DNA CTGGGGAGTCCT; chemistry not given here)	1733.0
N5_7E2 (DNA CTGGGGAGTCCT; chemistry not given here)	1234.5
N5_7E5 (DNA CTGGGGAGTCCT; chemistry not given here)	867.4
N5_7E6 (DNA CTGGGGAGTCCT; chemistry not given here)	1153.2
N5_7E7 (DNA CTGGGGAGTCCT; chemistry not given here)	870.2
N5_7E8 (DNA CTGGGGAGTCCT; chemistry not given here)	879.9
N5_7E9 (DNA CTGGGGAGTCCT; chemistry not given here)	955.3
N5_7E11 (DNA CTGGGGAGTCCT; chemistry not given here)	732.1
N5_7E12 (DNA CTGGGGAGTCCT; chemistry not given here)	933.3
N5_7F1 (DNA CTGGGGAGTCCT; chemistry not given here)	1744.2
N5_7F2 (DNA CTGGGGAGTCCT; chemistry not given here)	937.4
N5_7F3 (DNA CTGGGGAGTCCT; chemistry not given here)	1139.0
N5_7F4 (DNA CTGGGGAGTCCT; chemistry not given here)	1239.0
N5_7F5 (DNA CTGGGGAGTCCT; chemistry not given here)	1115.4
N5_7F6 (DNA CTGGGGAGTCCT; chemistry not given here)	898.5
N5_7F8 (DNA CTGGGGAGTCCT; chemistry not given here)	1279.7
N5_7F9 (DNA CTGGGGAGTCCT; chemistry not given here)	642.4
N5_7F10 (DNA CTGGGGAGTCCT; chemistry not given here)	572.7
N5_7F11 (DNA CTGGGGAGTCCT; chemistry not given here)	339.7
N5_7G1 (DNA CTGGGGAGTCCT; chemistry not given here)	935.4
N5_7G3 (DNA CTGGGGAGTCCT; chemistry not given here)	799.3
N5_7G6 (DNA CTGGGGAGTCCT; chemistry not given here)	902.8
N5_7G7 (DNA CTGGGGAGTCCT; chemistry not given here)	952.9

Substance	Fold (induction of luciferase gene expression) [fold]
N5_7G8 (DNA CTGGGGAGTCCT; chemistry not given here)	775.6
N5_7G9 (DNA CTGGGGAGTCCT; chemistry not given here)	841.7
N5_7G10 (DNA CTGGGGAGTCCT; chemistry not given here)	530.8
N5_7G11 (DNA CTGGGGAGTCCT; chemistry not given here)	1533.8
N5_7G12 (DNA CTGGGGAGTCCT; chemistry not given here)	894.6
N5_7H1 (DNA CTGGGGAGTCCT; chemistry not given here)	158.5
N5_7H3 (DNA CTGGGGAGTCCT; chemistry not given here)	360.5
N5_7H4 (DNA CTGGGGAGTCCT; chemistry not given here)	560.0
N5_7H5 (DNA CTGGGGAGTCCT; chemistry not given here)	848.4
N5_7H9 (DNA CTGGGGAGTCCT; chemistry not given here)	860.0
N5_7H10 (DNA CTGGGGAGTCCT; chemistry not given here)	713.9
N5_7H11 (DNA CTGGGGAGTCCT; chemistry not given here)	1105.2
N5_7H12 (DNA CTGGGGAGTCCT; chemistry not given here)	1194.5
N5_8A9 (DNA CTGGGGAGTCCT; chemistry not given here)	1090.4
N5_8C7 (DNA CTGGGGAGTCCT; chemistry not given here)	817.6
N5_8D1 (DNA CTGGGGAGTCCT; chemistry not given here)	1139.6
N5_8F1 (DNA CTGGGGAGTCCT; chemistry not given here)	951.8
N5_8F3 (DNA CTGGGGAGTCCT; chemistry not given here)	862.0
N5_8F11 (DNA CTGGGGAGTCCT; chemistry not given here)	1282.8
N5_8G9 (DNA CTGGGGAGTCCT; chemistry not given here)	1066.5
N5_8H1 (DNA CTGGGGAGTCCT; chemistry not given here)	1191.9
N5_8H7 (DNA CTGGGGAGTCCT; chemistry not given here)	1218.5

Source: patent US20250101436A1, “APTAMERS AND SMALL MOLECULE LIGANDS” (MeiraGTx UK II Limited, priority 2021, published 2025)
